Patent US9266829B2, “Quinone compounds and their uses for the treatment of cancer” (Onco-NX Limited, priority 2012, dated 2016)
In brackets after ≈: the same amount, converted by molar mass. Several values for one entry are separate records, joined by “and”; a condition that tells them apart may be missing. Equal values may be shown once. Read-outs that look alike come from different tables or passages of the source.

Legend:
[1] = tested on: MDA468; assay: IC50 by MTT assay on MDA468 cells; format: cell-based, human
[2] = tested on: MDA NQ01; assay: IC50 by MTT assay on NQ01 cells; format: cell-based, human; settings: for MDA468 to NQ01 differential: ratio of IC50 values
[3] = physchem; format: physicochemical; settings: buffer, pH 7
[4] = physchem; format: physicochemical; settings: buffer, pH 7.4
Procedure: The stability of esters and their hydrolysis products was measured in solution. (50 μM Es5 in Tris buffer (0.1 mol dm^−3) at pH 7.4). Samples were taken at timed intervals up to 24 hours and analysed by HPLC. The detection wavelength was 330 nm. Chromatographic analysis was carried out by isocratic elution with 30:70 MeOH: Tris buffer (0.1 mol dm^−3, pH 7.4), at 1 ml min^−1. The chromatographic separation of the drug was achieved using a Hypersil ODS column with 250 mm×4.6 mm I.D.

[5] = tested on: H460 NSCLC; assay: In vivo hollow fibre assay, H460; settings: fibres at s.c. site; i.p. dosing days 3-6; nude mice
Procedure: (§1) The activity of Es5 (4.65) was evaluated in vivo against 3 cancer cell lines H460, MDA-MB-468-NQ01 and MDA-MB-468-MOCK using the in vivo hollow fibre assay (HFA), with fibres implanted at both intraperitoneal (i.p.) and subcutaneous (s.c.) sites. Es5 and the control agent Doxorubicin were administered as multiple doses by intraperitoneal injection (i.p.) on days 3, 4, 5 & 6 at 0.5 mg/kg/day and 2.5 mg/kg/day respectively.
(§2) Three human tumour cell lines were selected for analysis: H460 NSCLC (from ICT) and two breast carcinoma lines MDA-MB-468-NQ01 and MDA-MB-468-MOCK (both supplied by Onco-NX). Cells were cultured in RPMI 1640 cell culture medium supplemented with 1 mM sodium pyruvate, 2 mM L-glutamine and 10% foetal bovine serum (all from Sigma), and maintained as monolayer cultures at 37° C. in a humidified 5% CO2 environment.
(§3) Female Balb/C immunodeficient nude mice aged 6-8 weeks were used (Harlan UK, Blackthorn, UK). Mice were kept in cages housed in isolation cabinets in an air-conditioned room with regular alternating cycles of light and darkness. They received Teklad 2018 diet (Harlan, Blackthorn, UK) and water ad libitum. All animal procedures were carried out under a project licence issued by the UK Home Office and UKCCCR guidelines were followed throughout.
Cells were loaded into sterilised colour-coded PVDF Spectra/Por hollow fibres (HF) (Spectrum Medical Inc, Houston, Tex., USA). Briefly cells were harvested and resuspended in cell culture medium at the required cell density. This preparation was then loaded into the HF and the ends were clamped and heat-sealed. […]
(§4) Mice were sacrificed on day 7 post-implantation, fibres removed, and cell survival analysed using a modified MTT assay, comparing absorbances seen for the treated groups with the corresponding untreated control group. […]

[6] = tested on: MDA-MB-468-NQ01; assay: In vivo hollow fibre assay, MDA-MB-468-NQ01; design: species or system mice
Procedure: as §1, §2, §3
Cells were loaded into sterilised colour-coded PVDF Spectra/Por hollow fibres (HF) (Spectrum Medical Inc, Houston, Tex., USA). Briefly cells were harvested and resuspended in cell culture medium at the required cell density. This preparation was then loaded into the HF and the ends were clamped and heat-sealed. The HF was then cut into 1.5 cm lengths which were again heat-sealed at both ends, and then transferred to 6-well plates containing medium before implantation for the in vivo experiments, or were incubated at 37° C. in a humidified 5% CO2 environment for varying times before processing using the modified MTT assay as described below.
For the in vivo experiments, under brief inhalation anaesthesia (2% isoflurane), one loaded hollow fibre for each of the cell lines was transplanted intraperitoneally or subcutaneously on the dorsal flank of each mouse and the mice were allowed to recover. Each group consisted of 6 mice and the implantation day was termed ‘day 0’.
For assessment of the therapeutic response of Es5 (4.65), on days 3, 4, 5 & 6 mice were treated with Es5 (4.65) at 0.5 mg/kg/day or Doxorubicin at 2.5 mg/kg/day.
Mice were sacrificed on day 7 post-implantation, fibres removed, and cell survival analysed using a modified MTT assay, comparing absorbances seen for the treated groups with the corresponding untreated control group. Statistical analysis was carried out using a Student's t-test.

[7] = tested on: MDA-MB-468-MOCK; assay: In vivo hollow fibre assay, MDA-MB-468-MOCK; settings: fibres at s.c. site; i.p. dosing days 3-6; nude mice
Procedure: as §1, §2
Female Balb/C immunodeficient nude mice aged 6-8 weeks were used (Harlan UK, Blackthorn, UK). Mice were kept in cages housed in isolation cabinets in an air-conditioned room with regular alternating cycles of light and darkness. They received Teklad 2018 diet (Harlan, Blackthorn, UK) and water ad libitum. […]
as §4

[8] = target: recombinant human DTD (Homo sapiens, UniProt P15559); settings: Beall et al.; Ross et al.; cited from earlier work
[9] = tested on: MDA468 cells; assay: Combination index at IC50 with other anti-cancer agents in MDA468 cells; format: cell-based, human
[10] = tested on: NQ01 cells; assay: Combination index at IC50 with other anti-cancer agents in NQ01 cells; format: cell-based, human
[11] = cited from earlier work
[12] = Temperature stability
[13] = Solubility (aqueous and organic)
[14] = Stability in aqueous and organic solution

recombinant human DTD, sequence (P15559 whole entry): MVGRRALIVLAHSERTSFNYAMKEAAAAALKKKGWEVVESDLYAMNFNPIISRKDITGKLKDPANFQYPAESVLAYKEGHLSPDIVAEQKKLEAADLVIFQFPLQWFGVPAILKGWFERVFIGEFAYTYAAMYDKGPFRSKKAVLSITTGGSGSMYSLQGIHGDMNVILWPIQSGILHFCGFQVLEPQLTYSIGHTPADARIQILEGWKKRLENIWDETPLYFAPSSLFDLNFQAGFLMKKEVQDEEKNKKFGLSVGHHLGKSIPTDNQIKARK

Compound: O=c1[nH]cc(F)c(=O)[nH]1 [5-fluorouracil]
- IC50 ([1]; Homo sapiens): 7960 nM
- IC50 ([2]; Homo sapiens, MTT assay): 12000 nM

Compound: N.N.[Cl][Pt][Cl] [Cisplatin]
- IC50 [1]: 675 nM
- IC50 ([2]; MTT assay): 570 nM

Compound: [Cl][Co][Cl] [Cobalt chloride]
- IC50 [1]: 35000 nM
- IC50 ([2]; MTT assay): 54000 nM

Compound: COc1cccc(C(=O)OCC2=C(N3CC3)C(=O)C(C)=C(N3CC3)C2=O)c1OC [Compound 4-05]
- half-life [3]: < 10 min

Compound: COc1ccc(OC)c(C(=O)OCC2=C(N3CC3)C(=O)C(C)=C(N3CC3)C2=O)c1 [Compound 4-07]
- half-life [3]: < 20 min

Compound: COc1ccc(C(=O)OCC2=C(N3CC3)C(=O)C(C)=C(N3CC3)C2=O)cc1OC [Compound 4-09]
- half-life [3]: < 30 min

Compound: COc1ccc(C(=O)OCC2=C(N3CC3)C(=O)C(C)=C(N3CC3)C2=O)c(OC)c1 [Compound 4-10]
- half-life [3]: < 30 min

Compound: COc1cccc(OC)c1C(=O)OCC1=C(N2CC2)C(=O)C(C)=C(N2CC2)C1=O [Compound 4-11]
- half-life [3]: < 30 min

Compound: COc1cc(C(=O)OCC2=C(N3CC3)C(=O)C(C)=C(N3CC3)C2=O)cc(OC)c1OC [Compound 4-14]
- half-life [3]: < 30 min

Compound: CC1=C(N2CC2)C(=O)C(COC(=O)c2ccc([N+](=O)[O-])cc2)=C(N2CC2)C1=O [Compound 4-20]
- half-life [3]: 20 min

Compound: CC1=C(N2CC2)C(=O)C(COC(=O)C(C)C)=C(N2CC2)C1=O [Compound 4-36]
- half-life [3]: < 30 min

Compound: CCC(=O)OCC1=C(N2CC2)C(=O)C(C)=C(N2CC2)C1=O [Compound 4-38]
- half-life [3]: 20 min

Compound: CC1=C(N2CC2)C(=O)C(COC(=O)C(C)(C)C)=C(N2CC2)C1=O [Compound 4-39]
- half-life [3]: < 30 min

Compound: CC1=C(N2CC2)C(=O)C(CCCO)=C(N2CC2)C1=O [Compound 4-61, 2,5-Bisaziridin-1-yl-3-(3-hydroxypropyl)-6-methyl-1,4-benzoquinone]
- half-life at 50 μM [4]: > 1440 min
- IC50 ([1]; Homo sapiens): 17 nM
- IC50 ([2]; Homo sapiens, MTT assay): 0.41 nM
- DT diaphorase enhancement ratio ([2]; IC50 MDA 468 / IC50 MDA NQO1): 41
- selectivity towards cells that express DT-diaphorase ([2]; IC50 values, MTT assay): excellent selectivity
- half-life at 50 μM [3]: > 1440 min

Compound: CC(=O)OCCC1=C(N2CC2)C(=O)C(C)=C(N2CC2)C1=O [Compound 4-70]
- half-life [3]: < 60 min

Compound: CC1=C(N2CC2)C(=O)C(CCOC(=O)c2ccccc2)=C(N2CC2)C1=O [Compound 4-71]
- half-life [3]: < 60 min

Compound: Nc1ccn([C@@H]2O[C@H](CO)[C@@H](O)[C@@H]2O)c(=O)n1 [Cytosine arabinoside (ARA-C), Cytosine arabinoside]
- IC50 [1]: 250 nM
- IC50 ([2]; MTT assay): 240 nM

Compound: CC(=O)O[C@@]12CO[C@@H]1C[C@H](O)[C@@]1(C)C(=O)[C@H](O)C3=C(C)[C@@H](OC(=O)[C@H](O)[C@@H](NC(=O)OC(C)(C)C)c4ccccc4)C[C@@](O)([C@@H](OC(=O)c4ccccc4)[C@H]21)C3(C)C [Docetaxel]
- IC50 ([1]; Homo sapiens): 1.15 nM
- IC50 ([2]; Homo sapiens, MTT assay): 1.88 nM

Compound: COc1cccc2c1C(=O)c1c(O)c3c(c(O)c1C2=O)C[C@@](O)(C(=O)CO)C[C@@H]3O[C@H]1C[C@H](N)[C@H](O)[C@H](C)O1 [Doxorubicin, reference compound]
- cell survival compared to the untreated control, H460, s.c. site [5]: did not demonstrate significant efficacy
- cell survival compared to the untreated control, MDA-MB-468-NQ01, s.c. site ([6]; fibres at s.c. site, i.p. dosing days 3-6, nude mice): did not demonstrate significant efficacy
- efficacy in the NQ01-expressing compared to the Mock MDA-MB-468 cell line ([6]; hollow fibre assay): little difference
- cell survival compared to the untreated control, MDA-MB-468-MOCK, s.c. site [7]: did not demonstrate significant efficacy

Compound: COc1cccc2c1C(=O)c1c(O)c3c(c(O)c1C2=O)C[C@@](O)(C(=O)CO)C[C@@H]3O[C@H]1C[C@H](N)[C@@H](O)[C@H](C)O1 [Epirubicin]
- IC50 ([1]; Homo sapiens): 23.2 nM
- IC50 ([2]; Homo sapiens, MTT assay): 27.5 nM

Compound: CC1=C(N2CC2)C(=O)C(C)=C(N2CC2)C1=O [MeDZQ, 2,5-diaziridinyl-3,6-dimethyl-1,4-benzoquinone]
- effectiveness as a substrate for recombinant human DTD relative to mitomycin C [8]: more than 150 fold

Compound: CN(Cc1cnc2nc(N)nc(N)c2n1)c1ccc(C(=O)N[C@@H](CCC(=O)O)C(=O)O)cc1 [Methotrexate]
- IC50 ([1]; Homo sapiens): 45 nM
- IC50 ([2]; Homo sapiens, MTT assay): 27 nM

Compound: CO[C@@]12[C@H](COC(N)=O)C3=C(C(=O)C(C)=C(N)C3=O)N1C[C@@H]1N[C@@H]12 [Mitomycin C]
- IC50 [1]: 50 nM
- IC50 ([2]; MTT assay): 10 nM
- MDA468 to NQ01 differential [2]: ~5 fold

Compound: CC1=C(N2CC2)C(=O)C(CO)=C(N2CC2)C1=O [RH1, 2,5-diaziridiny 1-3-(hydroxymethyl)-6-methyl-1,4-benzoquinone]
- IC50 [1]: 4.41 nM and 3.5 nM
- IC50 ([2]; MTT assay): 0.12 nM
- MDA468 to NQ01 differential [2]: > 30 fold
- Combination index at IC50 with ARC-C in MDA468 cells ([9]; with ARC-C): 1.45 (slight
- Combination index at IC50 with Cis-platinum in MDA468 ([9]; with Cis-platinum): 0.499 (synergy)
- Combination index at IC50 with Docetaxel in MDA468 cells ([9]; with Docetaxel): 0.850 (slight
- Combination index at IC50 with Epirubicin in MDA468 cells ([9]; with Epirubicin): 4.81 (strong
- Combination Index at IC50 with Mitomycin C in MDA468 cells ([9]; with Mitomycin C): 0.577 (synergy)
- Combination index at IC50 with cobalt chloride in MDA468 cells ([9]; with cobalt chloride): 0.170 (strong
- Combination index at IC50 with ARA-C in NQ01 cells ([10]; with ARA-C): 1.22 (slight
- Combination index at IC50 with Cis-platinum in MDA NQ01 ([10]; with Cis-platinum): 0.672 (synergy)
- Combination index at IC50 with Docetaxel in NQ01 cells ([10]; with Docetaxel): 0.864 (slight
- Combination index at IC50 with Epirubicin in NQ01 cells ([10]; with Epirubicin): 2.09 (antagonism)
- Combination Index at IC50 with Mitomycin C in NQ01 cells ([10]; with Mitomycin C): 1.2 (slight
- Combination index at IC50 with cobalt chloride in NQ01 cells ([10]; with cobalt chloride): 0.80 (moderate
- pH stability, t1/2 ([11]; pH 4.16, from AAPS PharmSciTech 2007): t1/2 = 0.07 days
- pH stability, t1/2 ([11]; pH 7.33, from AAPS PharmSciTech 2007): t1/2 = 43.52 days
- pH stability, t1/2 ([11]; pH 9.82, nearest comparison from AAPS PharmSciTech 2007, 8 (1) Article 16): t1/2 = 0.96 days
- Temperature stability, t90 ([12]; 4 C.): 4 C. t90 >7 days
- Temperature stability, t90 ([12]; 40 C.): 40 C. t90 2 days
- Temperature stability, t1/2 ([12]; 55 C.): 55 C. t1/2 2 days
- Temperature stability, t90 ([12]; Ambient): Ambient t90 3 days
- Solubility (organic) ([13]; DMSO/chloroform): >30 mg/mL
- Solubility (aqueous) ([13]; water): 0.5 mg/mL (water) (≈ 2.13 mM)
- Stability (aqueous) [14]: >7 days
- Stability (organic) ([14]; in words): months

Compound: CC[C@]1(O)C[C@@H]2CN(CCc3c([nH]c4ccccc34)[C@@](C(=O)OC)(c3cc4c(cc3OC)N(C)[C@H]3[C@@](O)(C(=O)OC)[C@H](OC(C)=O)[C@]5(CC)C=CCN6CC[C@]43[C@@H]65)C2)C1 [Vinblastine]
- IC50 ([1]; Homo sapiens): 16 nM
- IC50 ([2]; Homo sapiens, MTT assay): 18.3 nM
